From the kinase profiling compilation of Christmann-Franck et al. (2016)

Columns and labels:
Assay in all cases: radiometric filter-binding kinase assay, Kinase HotSpot
Conditions in all cases: compound 0.5 µM; ATP 10 µM
[1] = biological target: TLK2 (human) (UniProt Q86UE8)
[2] = biological target: STK38 (human) (UniProt Q15208)
[3] = biological target: MAP3K11 (human) (UniProt Q16584)
[4] = biological target: ITK (human) (UniProt Q08881)
[5] = biological target: NEK1 (human) (UniProt Q96PY6)
[6] = biological target: PBK (human) (UniProt Q96KB5)
Sequence of PBK (human) (Q96KB5 whole entry, looked up): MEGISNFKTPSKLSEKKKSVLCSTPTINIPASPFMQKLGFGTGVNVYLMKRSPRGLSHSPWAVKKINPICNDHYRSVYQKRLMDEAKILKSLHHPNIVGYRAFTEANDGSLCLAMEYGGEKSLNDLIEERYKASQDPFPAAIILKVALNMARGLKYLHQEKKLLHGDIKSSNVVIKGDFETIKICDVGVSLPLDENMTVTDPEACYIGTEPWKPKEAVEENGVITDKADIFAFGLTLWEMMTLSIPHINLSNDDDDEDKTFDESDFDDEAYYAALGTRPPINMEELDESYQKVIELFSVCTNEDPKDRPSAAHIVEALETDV

[7] = biological target: TAOK1 (human) (UniProt Q7L7X3)
[8] = biological target: KDR (human) (UniProt P35968)
[9] = biological target: MAPK12 (human) (UniProt P53778)
[10] = biological target: PRKG2 (human) (UniProt Q13237)
[11] = biological target: NEK2 (human) (UniProt P51955)
Sequence of NEK2 (human) (P51955 whole entry, looked up): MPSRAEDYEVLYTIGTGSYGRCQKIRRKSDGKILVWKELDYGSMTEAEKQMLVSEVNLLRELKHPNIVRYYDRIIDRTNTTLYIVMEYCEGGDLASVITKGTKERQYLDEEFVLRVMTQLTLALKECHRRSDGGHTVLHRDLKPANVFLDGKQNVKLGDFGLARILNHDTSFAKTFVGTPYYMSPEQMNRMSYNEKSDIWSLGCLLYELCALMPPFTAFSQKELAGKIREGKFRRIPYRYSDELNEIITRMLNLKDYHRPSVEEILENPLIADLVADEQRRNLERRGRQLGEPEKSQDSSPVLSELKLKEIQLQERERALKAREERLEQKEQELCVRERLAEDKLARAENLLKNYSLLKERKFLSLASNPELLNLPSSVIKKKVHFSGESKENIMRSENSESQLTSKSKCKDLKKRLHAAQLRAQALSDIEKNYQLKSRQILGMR

[12] = biological target: TAOK3 (human) (UniProt Q9H2K8)
[13] = biological target: MYO3B (human) (UniProt Q8WXR4)
[14] = biological target: PRKD2 (human) (UniProt Q9BZL6)
[15] = biological target: ACVR1 (human) (UniProt Q04771)
[16] = biological target: PAK4 (human) (UniProt O96013)
[17] = biological target: MYLK2 (human) (UniProt Q9H1R3)
[18] = biological target: EPHA3 (human) (UniProt P29320)
[19] = biological target: MAP4K4 (human) (UniProt O95819)
[20] = biological target: EPHA5 (human) (UniProt P54756)
[21] = biological target: DAPK2 (human) (UniProt Q9UIK4)
[22] = biological target: TGFBR2 (human) (UniProt P37173)
[23] = biological target: CDK3 CCNE1 (human) (UniProt Q00526+P24864)
[24] = biological target: DCLK2 (human) (UniProt Q8N568)
[25] = biological target: CDK6 CCND3 (human) (UniProt P30281+Q00534)
[26] = biological target: SGK2 (human) (UniProt Q9HBY8)
[27] = biological target: CAMK2D (human) (UniProt Q13557)
[28] = biological target: GSK3A (human) (UniProt P49840)
Sequence of GSK3A (human) (P49840 whole entry, looked up): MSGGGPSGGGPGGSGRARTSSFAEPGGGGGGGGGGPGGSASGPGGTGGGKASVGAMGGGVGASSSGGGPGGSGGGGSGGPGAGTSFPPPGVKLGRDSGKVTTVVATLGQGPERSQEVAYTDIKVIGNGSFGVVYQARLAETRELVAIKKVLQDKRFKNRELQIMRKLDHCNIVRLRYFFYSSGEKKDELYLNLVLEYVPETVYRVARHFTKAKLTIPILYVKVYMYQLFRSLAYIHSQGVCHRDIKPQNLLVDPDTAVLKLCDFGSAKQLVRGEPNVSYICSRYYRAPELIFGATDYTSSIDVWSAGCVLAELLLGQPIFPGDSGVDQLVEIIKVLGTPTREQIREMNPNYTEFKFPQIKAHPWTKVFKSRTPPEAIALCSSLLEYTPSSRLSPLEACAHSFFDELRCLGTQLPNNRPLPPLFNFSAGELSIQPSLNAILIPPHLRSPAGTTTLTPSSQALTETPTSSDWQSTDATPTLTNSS

[29] = biological target: STK10 (human) (UniProt O94804)
[30] = biological target: MARK3 (human) (UniProt P27448)
Sequence of MARK3 (human) (P27448 whole entry, looked up): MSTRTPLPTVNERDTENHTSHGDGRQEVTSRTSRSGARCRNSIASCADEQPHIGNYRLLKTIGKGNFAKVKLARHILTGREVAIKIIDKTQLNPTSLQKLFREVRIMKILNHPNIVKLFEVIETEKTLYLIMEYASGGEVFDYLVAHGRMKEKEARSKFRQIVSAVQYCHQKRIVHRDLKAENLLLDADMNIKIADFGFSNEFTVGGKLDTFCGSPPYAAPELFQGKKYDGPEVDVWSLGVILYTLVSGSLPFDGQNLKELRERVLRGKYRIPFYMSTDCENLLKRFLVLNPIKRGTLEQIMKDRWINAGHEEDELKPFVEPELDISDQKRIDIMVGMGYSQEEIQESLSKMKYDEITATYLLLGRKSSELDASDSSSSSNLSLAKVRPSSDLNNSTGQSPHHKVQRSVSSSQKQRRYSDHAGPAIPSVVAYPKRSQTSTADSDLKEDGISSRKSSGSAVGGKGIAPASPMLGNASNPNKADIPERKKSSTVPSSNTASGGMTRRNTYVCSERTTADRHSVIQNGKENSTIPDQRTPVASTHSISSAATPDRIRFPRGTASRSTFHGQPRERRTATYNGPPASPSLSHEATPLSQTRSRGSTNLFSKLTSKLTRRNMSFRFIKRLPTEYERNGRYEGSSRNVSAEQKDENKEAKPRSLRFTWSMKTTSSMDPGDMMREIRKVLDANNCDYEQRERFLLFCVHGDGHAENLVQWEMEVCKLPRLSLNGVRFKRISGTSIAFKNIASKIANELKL

[31] = biological target: ABL2 (human) (UniProt P42684)
[32] = biological target: BRSK1 (human) (UniProt Q8TDC3)
[33] = biological target: HIPK4 (human) (UniProt Q8NE63)
[34] = biological target: ERBB4 (human) (UniProt Q15303)
[35] = biological target: SRPK1 (human) (UniProt Q96SB4)
[36] = biological target: PASK (human) (UniProt Q96RG2)
Sequence of PASK (human) (Q96RG2 whole entry, looked up): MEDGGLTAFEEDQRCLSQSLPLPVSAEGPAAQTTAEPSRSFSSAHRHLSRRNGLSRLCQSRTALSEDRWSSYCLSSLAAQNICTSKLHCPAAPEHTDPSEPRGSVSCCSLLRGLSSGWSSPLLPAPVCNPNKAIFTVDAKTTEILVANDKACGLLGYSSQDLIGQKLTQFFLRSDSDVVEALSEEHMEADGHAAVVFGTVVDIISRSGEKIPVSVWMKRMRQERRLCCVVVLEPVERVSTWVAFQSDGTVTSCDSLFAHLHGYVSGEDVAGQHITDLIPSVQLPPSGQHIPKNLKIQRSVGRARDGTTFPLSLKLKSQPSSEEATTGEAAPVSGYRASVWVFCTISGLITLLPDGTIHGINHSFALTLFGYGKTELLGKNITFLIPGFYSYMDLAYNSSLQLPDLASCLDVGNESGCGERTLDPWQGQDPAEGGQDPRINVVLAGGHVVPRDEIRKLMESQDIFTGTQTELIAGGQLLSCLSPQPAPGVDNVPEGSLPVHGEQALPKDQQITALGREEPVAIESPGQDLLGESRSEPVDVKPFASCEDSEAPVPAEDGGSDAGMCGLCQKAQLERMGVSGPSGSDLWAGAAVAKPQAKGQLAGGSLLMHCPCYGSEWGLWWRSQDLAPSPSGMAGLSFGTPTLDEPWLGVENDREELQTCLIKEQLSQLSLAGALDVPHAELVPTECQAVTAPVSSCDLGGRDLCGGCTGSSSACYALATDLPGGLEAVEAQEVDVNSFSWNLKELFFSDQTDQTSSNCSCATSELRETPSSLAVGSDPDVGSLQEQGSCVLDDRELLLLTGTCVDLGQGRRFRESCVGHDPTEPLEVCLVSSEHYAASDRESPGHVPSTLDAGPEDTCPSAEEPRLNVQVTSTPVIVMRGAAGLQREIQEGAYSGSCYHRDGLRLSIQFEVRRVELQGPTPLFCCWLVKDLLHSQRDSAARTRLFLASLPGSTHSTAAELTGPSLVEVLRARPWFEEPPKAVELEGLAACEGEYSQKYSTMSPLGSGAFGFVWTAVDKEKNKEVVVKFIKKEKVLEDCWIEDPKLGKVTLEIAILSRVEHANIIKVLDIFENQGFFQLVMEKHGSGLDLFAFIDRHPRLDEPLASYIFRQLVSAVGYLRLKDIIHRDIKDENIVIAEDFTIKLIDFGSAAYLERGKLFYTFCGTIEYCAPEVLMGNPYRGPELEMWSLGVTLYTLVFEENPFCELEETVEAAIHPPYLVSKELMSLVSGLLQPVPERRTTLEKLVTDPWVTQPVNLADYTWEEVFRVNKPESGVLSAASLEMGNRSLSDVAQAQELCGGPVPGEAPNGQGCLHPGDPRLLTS

[37] = biological target: CSNK1G2 (human) (UniProt P78368)
[38] = biological target: TEC (human) (UniProt P42680)
[39] = biological target: EGFR (human) (UniProt P00533)
[40] = biological target: CAMK2G (human) (UniProt Q13555)
Sequence of CAMK2G (human) (Q13555 whole entry, looked up): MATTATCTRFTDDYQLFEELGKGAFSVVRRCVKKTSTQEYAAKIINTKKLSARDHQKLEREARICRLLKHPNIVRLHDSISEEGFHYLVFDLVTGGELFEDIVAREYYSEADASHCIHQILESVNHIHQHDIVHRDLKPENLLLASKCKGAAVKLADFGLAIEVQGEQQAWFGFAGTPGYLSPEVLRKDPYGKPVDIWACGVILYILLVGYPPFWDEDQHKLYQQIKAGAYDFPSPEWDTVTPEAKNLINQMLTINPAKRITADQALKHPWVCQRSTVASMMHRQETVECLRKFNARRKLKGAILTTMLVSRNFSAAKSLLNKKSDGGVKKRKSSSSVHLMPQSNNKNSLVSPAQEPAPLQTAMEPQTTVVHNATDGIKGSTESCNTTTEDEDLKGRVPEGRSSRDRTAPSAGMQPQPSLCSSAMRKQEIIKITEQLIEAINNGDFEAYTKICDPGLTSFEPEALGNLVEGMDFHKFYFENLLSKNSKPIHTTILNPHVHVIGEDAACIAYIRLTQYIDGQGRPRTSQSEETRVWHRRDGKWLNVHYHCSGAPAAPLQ

[41] = biological target: RPS6KA1 KD1 KD2 (human) (UniProt Q15418)

Sequence of MAP3K11 (human) (Q16584 whole entry, looked up): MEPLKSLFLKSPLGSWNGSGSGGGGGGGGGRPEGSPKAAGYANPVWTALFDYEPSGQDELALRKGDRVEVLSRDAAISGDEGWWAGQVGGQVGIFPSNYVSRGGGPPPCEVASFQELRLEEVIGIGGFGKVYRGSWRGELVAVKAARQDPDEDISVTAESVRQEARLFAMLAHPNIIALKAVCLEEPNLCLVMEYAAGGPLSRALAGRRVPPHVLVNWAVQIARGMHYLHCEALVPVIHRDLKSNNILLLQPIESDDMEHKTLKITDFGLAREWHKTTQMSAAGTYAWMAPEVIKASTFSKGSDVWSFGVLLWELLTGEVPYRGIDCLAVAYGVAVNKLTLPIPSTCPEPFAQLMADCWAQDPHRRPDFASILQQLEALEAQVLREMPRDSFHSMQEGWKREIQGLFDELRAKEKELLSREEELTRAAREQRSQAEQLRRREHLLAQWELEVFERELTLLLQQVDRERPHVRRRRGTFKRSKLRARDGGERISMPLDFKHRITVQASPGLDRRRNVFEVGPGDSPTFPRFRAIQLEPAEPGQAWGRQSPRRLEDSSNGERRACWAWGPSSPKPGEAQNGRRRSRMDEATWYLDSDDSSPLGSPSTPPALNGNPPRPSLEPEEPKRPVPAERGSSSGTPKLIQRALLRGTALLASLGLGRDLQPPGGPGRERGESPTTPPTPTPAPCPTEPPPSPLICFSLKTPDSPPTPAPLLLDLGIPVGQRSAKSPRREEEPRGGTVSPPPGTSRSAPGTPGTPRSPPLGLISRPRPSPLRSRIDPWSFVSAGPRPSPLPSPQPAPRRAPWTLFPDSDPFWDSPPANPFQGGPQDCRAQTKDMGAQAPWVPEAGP

O=C1Nc2ccc(Br)cc2/C1=C\c1cc2c([nH]1)CCCC2 was tested. Which residual activity [1] did it give?
Its residual activity is 101%.

What about the residual activity [2] of the same molecule?
The residual activity was 80.1%.

What about the residual activity [3] of the same molecule?
The residual activity was 16.8%.

And the residual activity [4]?
The residual activity was 87.5%.

And the residual activity [5]?
Its residual activity is 94.6%.

What about the residual activity [6] of the same molecule?
The residual activity was 87.8%.

What about the residual activity [7] of the same molecule?
Its residual activity is 92.3%.

What about the residual activity [8] of the same molecule?
Its residual activity is 70.9%.

What about the residual activity [9] of the same molecule?
The residual activity was 93%.

What about the residual activity [10] of the same molecule?
Its residual activity is 92.4%.

And the residual activity [11]?
Its residual activity is 87.9%.

What about the residual activity [12] of the same molecule?
The residual activity was 75.3%.

And the residual activity [13]?
Its residual activity is 55.1%.

And the residual activity [14]?
Its residual activity is 95.8%.

And the residual activity [15]?
Its residual activity is 97%.

And the residual activity [16]?
The residual activity was 76.8%.

What about the residual activity [17] of the same molecule?
Its residual activity is 78.2%.

What about the residual activity [18] of the same molecule?
The residual activity was 94.6%.

What about the residual activity [19] of the same molecule?
The residual activity was 6.84%.

And the residual activity [20]?
Its residual activity is 91.3%.

And the residual activity [21]?
Its residual activity is 102%.

And the residual activity [22]?
Its residual activity is 101%.

And the residual activity [23]?
The residual activity was 93.2%.

What about the residual activity [24] of the same molecule?
The residual activity was 98.2%.

What about the residual activity [25] of the same molecule?
The residual activity was 85.8%.

And the residual activity [26]?
The residual activity was 101%.

And the residual activity [27]?
Its residual activity is 84.2%.

What about the residual activity [28] of the same molecule?
The residual activity was 88.5%.

And the residual activity [29]?
The residual activity was 65.5%.

And the residual activity [30]?
Its residual activity is 84.9%.

What about the residual activity [31] of the same molecule?
The residual activity was 82.6%.

What about the residual activity [32] of the same molecule?
Its residual activity is 80.8%.

What about the residual activity [33] of the same molecule?
Its residual activity is 104%.

And the residual activity [34]?
Its residual activity is 84.6%.

And the residual activity [35]?
Its residual activity is 98.3%.

What about the residual activity [36] of the same molecule?
The residual activity was 98.9%.

What about the residual activity [37] of the same molecule?
Its residual activity is 96.8%.

And the residual activity [38]?
Its residual activity is 129%.

And the residual activity [39]?
The residual activity was 87.4%.

And the residual activity [40]?
The residual activity was 92.4%.

What about the residual activity [41] of the same molecule?
The residual activity was 70.4%.
